Values of other authors as cited in US6605646B2, “Vitamin supplement composition” (Upsher-Smith Laboratories, Inc., priority 1995, dated 2003).

Conditions: grain fortification, elderly adults

## Nc1nc2ncc(CNc3ccc(C(=O)N[C@@H](CCC(=O)O)C(=O)O)cc3)nc2c(=O)[nH]1 [folic acid, pteroylglutamic acid]
  serum folate: increased serum folate
  serum homocysteine: decreased serum homocysteine
